From ChEMBL document CHEMBL3885881, “DrugMatrix”

Species: Rattus norvegicus
Experiment: DrugMatrix - Regimen: Daily Repeat
Type: toxicity, organism-based, Sprague-Dawley
Set-up: regimen Daily Repeat, gender Male, age 6-8 weeks
Details: in vivo, ip, route intraperitoneal, vehicle 100 % SALINE; for ABSOLUTE BASOPHIL / ABSOLUTE EOSINOPHIL / ABSOLUTE LYMPHOCYTE / ABSOLUTE MONOCYTE / ABSOLUTE SEGMENTED NEUTROPHIL / BASOPHIL / EOSINOPHIL / ERYTHROCYTE COUNT / HEMATOCRIT / HEMOGLOBIN / LEUKOCYTE COUNT / LYMPHOCYTE / MEAN CORPUSCULAR HEMOGLOBIN / MEAN CORPUSCULAR HEMOGLOBIN CONCENTRATION / MEAN CORPUSCULAR VOLUME / MONOCYTE / NEUTROPHIL / PLATELET COUNT: tissue Blood; for ALANINE AMINOTRANSFERASE / ALBUMIN / ALKALINE PHOSPHATASE / ASPARTATE AMINOTRANSFERASE / BLOOD UREA NITROGEN / CHLORIDE / CHOLESTEROL / CREATININE / GLUCOSE / LACTATE DEHYDROGENASE / LIPASE / PHOSPHORUS / POTASSIUM / SODIUM / TOTAL BILIRUBIN / TOTAL PROTEIN / URIC ACID / CREATINE PHOSPHOKINASE: tissue Plasma
[1] = 0 mg/kg, 120 h, dose level Control, time 5 day
[2] = 0 mg/kg, […], dose level Control, time 14 day
[3] = 0 mg/kg, […], dose level Control, time 28 day
[4] = 160 mg/kg, 120 h, dose level High, time 5 day

NCC[C@H](O)C(=O)N[C@@H]1C[C@H](N)[C@@H](O[C@H]2O[C@H](CN)[C@@H](O)[C@H](O)[C@H]2O)[C@H](O)[C@H]1O[C@H]1O[C@H](CO)[C@@H](O)[C@H](N)[C@H]1O [AMIKACIN]
ABSOLUTE BASOPHIL [1]: 32 cells/µL | ABSOLUTE EOSINOPHIL [1]: 110 cells/µL | ABSOLUTE LYMPHOCYTE [1]: 6630 cells/µL | ABSOLUTE MONOCYTE [1]: 140 cells/µL | ABSOLUTE SEGMENTED NEUTROPHIL [1]: 1170 cells/µL | BASOPHIL [1]: 0.38% | EOSINOPHIL [1]: 1.28% | ERYTHROCYTE COUNT [1]: 7.45 x10E6/uL | HEMATOCRIT [1]: 45.74% | HEMOGLOBIN [1]: 14.72 G/DL | LEUKOCYTE COUNT [1]: 8.11 x10E3/uL | LYMPHOCYTE [1]: 81.3% | MEAN CORPUSCULAR HEMOGLOBIN [1]: 19.76 pg | MEAN CORPUSCULAR HEMOGLOBIN CONCENTRATION [1]: 32.16 G/DL | MEAN CORPUSCULAR VOLUME [1]: 61.38 fL | MONOCYTE [1]: 1.76% | NEUTROPHIL [1]: 14.9% | PLATELET COUNT [1]: 1322.4 x10E3/uL | ALANINE AMINOTRANSFERASE [1]: 25.8 u/L | ALBUMIN [1]: 3.64 G/DL | ALKALINE PHOSPHATASE [1]: 233.6 u/L | ASPARTATE AMINOTRANSFERASE [1]: 81.4 u/L | BLOOD UREA NITROGEN [1]: 14.4 mg/dL | CHLORIDE [1]: 105.6 MEQ/L | CHOLESTEROL [1]: 69.2 mg/dL | CREATININE [1]: 0.56 mg/dL | GLUCOSE [1]: 125.4 mg/dL | LACTATE DEHYDROGENASE [1]: 105.4 u/L | LIPASE [1]: 22.4 u/L | PHOSPHORUS [1]: 11.48 mg/dL | POTASSIUM [1]: 5.52 MEQ/L | SODIUM [1]: 147 MEQ/L | TOTAL BILIRUBIN [1]: 0.2 mg/dL | TOTAL PROTEIN [1]: 6.1 G/DL | URIC ACID [1]: 1.06 mg/dL | ABSOLUTE BASOPHIL [2]: 130 cells/µL | ABSOLUTE EOSINOPHIL [2]: 140 cells/µL | ABSOLUTE LYMPHOCYTE [2]: 13500 cells/µL | ABSOLUTE MONOCYTE [2]: 400 cells/µL | ABSOLUTE SEGMENTED NEUTROPHIL [2]: 2330 cells/µL | BASOPHIL [2]: 0.72% | EOSINOPHIL [2]: 0.86% | ERYTHROCYTE COUNT [2]: 7.74 x10E6/uL | HEMATOCRIT [2]: 45.98% | HEMOGLOBIN [2]: 13.86 G/DL | LEUKOCYTE COUNT [2]: 16.61 x10E3/uL | LYMPHOCYTE [2]: 81.34% | MEAN CORPUSCULAR HEMOGLOBIN [2]: 18 pg | MEAN CORPUSCULAR HEMOGLOBIN CONCENTRATION [2]: 30.22 G/DL | MEAN CORPUSCULAR VOLUME [2]: 59.4 fL | MONOCYTE [2]: 2.46% | NEUTROPHIL [2]: 14.14% | PLATELET COUNT [2]: 1445.5 x10E3/uL | ABSOLUTE BASOPHIL [3]: 91 cells/µL | ABSOLUTE EOSINOPHIL [3]: 110 cells/µL | ABSOLUTE LYMPHOCYTE [3]: 9910 cells/µL | ABSOLUTE MONOCYTE [3]: 210 cells/µL | ABSOLUTE SEGMENTED NEUTROPHIL [3]: 1560 cells/µL | BASOPHIL [3]: 0.77% | EOSINOPHIL [3]: 0.92% | ERYTHROCYTE COUNT [3]: 8.21 x10E6/uL | HEMATOCRIT [3]: 47.53% | HEMOGLOBIN [3]: 15.65 G/DL | LEUKOCYTE COUNT [3]: 11.91 x10E3/uL | LYMPHOCYTE [3]: 83.34% | MEAN CORPUSCULAR HEMOGLOBIN [3]: 19.07 pg | MEAN CORPUSCULAR HEMOGLOBIN CONCENTRATION [3]: 32.93 G/DL | MEAN CORPUSCULAR VOLUME [3]: 57.9 fL | MONOCYTE [3]: 1.68% | NEUTROPHIL [3]: 12.97% | PLATELET COUNT [3]: 1323.8 x10E3/uL | ALANINE AMINOTRANSFERASE [2]: 31.6 u/L | ALBUMIN [2]: 3.66 G/DL | ALKALINE PHOSPHATASE [2]: 228.6 u/L | ASPARTATE AMINOTRANSFERASE [2]: 79.6 u/L | BLOOD UREA NITROGEN [2]: 11.2 mg/dL | CHLORIDE [2]: 107 MEQ/L | CHOLESTEROL [2]: 57 mg/dL | CREATINE PHOSPHOKINASE [2]: 233.6 u/L | CREATININE [2]: 0.5 mg/dL | GLUCOSE [2]: 124.4 mg/dL | LACTATE DEHYDROGENASE [2]: 106.4 u/L | LIPASE [2]: 24.4 u/L | PHOSPHORUS [2]: 10.52 mg/dL | POTASSIUM [2]: 6.34 MEQ/L | SODIUM [2]: 149.2 MEQ/L | TOTAL BILIRUBIN [2]: 0.2 mg/dL | TOTAL PROTEIN [2]: 6.48 G/DL | URIC ACID [2]: 0.94 mg/dL | ALANINE AMINOTRANSFERASE [3]: 30 u/L | ALBUMIN [3]: 3.71 G/DL | ALKALINE PHOSPHATASE [3]: 186.8 u/L | ASPARTATE AMINOTRANSFERASE [3]: 78.2 u/L | BLOOD UREA NITROGEN [3]: 14.2 mg/dL | CHLORIDE [3]: 105.4 MEQ/L | CHOLESTEROL [3]: 44.9 mg/dL | CREATINE PHOSPHOKINASE [3]: 334.3 u/L | CREATININE [3]: 0.6 mg/dL | GLUCOSE [3]: 147.2 mg/dL | LACTATE DEHYDROGENASE [3]: 123.1 u/L | LIPASE [3]: 9.6 u/L | PHOSPHORUS [3]: 10.01 mg/dL | POTASSIUM [3]: 6.57 MEQ/L | SODIUM [3]: 149.5 MEQ/L | TOTAL BILIRUBIN [3]: 0.21 mg/dL | TOTAL PROTEIN [3]: 6.66 G/DL | URIC ACID [3]: 1.26 mg/dL | ABSOLUTE BASOPHIL [4]: 42 cells/µL | ABSOLUTE EOSINOPHIL [4]: 76 cells/µL | ABSOLUTE LYMPHOCYTE [4]: 7260 cells/µL
